Legend:
LUHMES cells = test: MitoMet (UKN4b) neurite outgrowth assay; assay type: cell-based, human; conditions: for IC25: Homo sapiens, benchmark response 25%, neurite area, 24 h exposure, three independent experiments, read-out: BMC25 neurite outgrowth; for fold change between BMC25 values of parent and metabolite (potency ratio, parent divided by metabolite): listed under the metabolite, >1 = metabolite more potent
Procedure: Figure 1 (A) A strategy scheme to assess metabolite-mediated hazard in NAMs used for neurotoxicity or developmental neurotoxicity. Parent and metabolite compounds are tested separately in the respective assay. This strategy is applicable when there is prior knowledge of metabolite formation. A decision rule based on the relative toxicities (X) of the parent and metabolite may be applied to decide whether next-generation risk assessment (NGRA) should be applied to the metabolite. The value of X may be defined according to the problem formulation and the NAM used. (B) An assay scheme of the neurite outgrowth assay used here for exemplification: Proliferating LUHMES cells were replated one day before differentiation was initiated (day −1). After two days (day 2) in differentiation medium, the cells were replated into assay format (96-well). At this point, neurite growth was re-initiated. The cells were treated with toxicants 1 h after replating. Neurite outgrowth and viability were determined 24 h later, using automated high content imaging. (C) Comparison of neurite outgrowth of cultures treated with bromethalin and desmethyl-bromethalin one exemplary parent/metabolite pair (chemical structures shown). […] The curves are based on data from three independent experiments and were fitted using a four-parameter Hill function. Data points shown are arithmetic means of data from independent experiments ±SEM. In each independent experiment, the technical replicates were measured and averaged. A benchmark response (BMR) of 25% was used as specified in the detailed assay description, and the respective benchmark concentration (BMC25) was determined. […] (D) Microscopic images of calcein-stained LUHMES cells. Similar images are used for neurite quantification. Treatment with 40 nM of the parent (left) or metabolite (right). The scale bar in orange corresponds to 50 µm. […] It stands under panel C and to the right of panel D, and was assigned to C.
The MitoMet neurite outgrowth assay was performed as previously described. In brief, all cell culture dishes and flasks were pre-coated with 50 μg/mL poly-l-ornithine (PLO) and 1 μg/mL fibronectin. Proliferating LUHMES cells were maintained in AdvDMEM/F12 containing L-glutamine (2 mM), N2 supplement (1x), and FGF (40 ng/mL). For pre-differentiation, the cells were replated at a density of 46,000 cells/cm^2 one day prior to the induction of differentiation (defined as the day of differentiation, Day −1). Differentiation was initiated by exchanging the culture medium for AdvDMEM/F12 supplemented with L-glutamine (2 mM), N2 supplement (1x), dibutyryl-cAMP (1 mM), tetracycline (1 µg/mL), and GDNF (2 ng/mL). After two days of differentiation (Day 2), the cells were replated (100,000 cells/cm^2) into 96-well plates. The final assay medium consisted of glucose-free AdvDMEM/F12 supplemented with galactose (18 mM), L-glutamine (2 mM), and tetracycline (1 µg/mL). One hour after replating, the cells were treated with a 10× concentrated stock solution of the test compound. Neurite outgrowth and viability were determined 24 h later, using automated high content imaging.
The image acquisition and analysis were conducted according to established protocols. The cells were stained with Hoechst H-33342 (1 µg/mL) to visualise nuclei and calcein-AM (1 µM) to label viable cell structures. Fluorescent images were acquired using an automated imaging system.

[1] = for extent of metabolite formation / cofactor (NADPH) dependence of metabolite formation: result in words; for cofactor (NADPH) dependence of metabolite formation: human liver microsomes ± NADPH; for metabolite formation over time: samples every 30 min for 2 h
Procedure: Parent compounds were incubated at final concentrations of either (a) 5 µM or (b) 50 µM (for chlorfenapyr) with pooled human liver microsomes (HLM; mixed gender, n = 150; BioIVT; West Sussex, UK) at corresponding protein concentrations of (a) 0.52 mg/mL or (b) 5.2 mg/mL. Incubations were performed in the absence or presence of NADPH at final concentrations of (a) 1 mM or (b) 10 mM, respectively, using a thermostated orbital shaker at 37 °C and 150 rpm. Reactions were terminated at designated time points by the addition of acetonitrile/methanol (3:1, v/v). Samples were then centrifuged at 10,000× g for 10 min, and the resulting supernatants were analysed by LC-MS/MS.
All analytes were measured using an Acquity UPLC H-Class system coupled to a Xevo TQ-S micro mass spectrometer (Waters). Chromatographic separation was performed on an Acquity UPLC BEH C18 column (2.1 × 50 mm, 1.7 µm) with a mobile phase consisting of 0.1% formic acid in water (A) and acetonitrile (B). Unless otherwise stated, the column was maintained at 30 °C and operated at a flow rate of 0.4 mL/min. The standard gradient was 95% A from 0 to 1.0 min, decreased to 2% A by 1.5 min, held until 4.0 min, returned to 95% A at 4.3 min, and held until 5.0 min. […] The mass spectrometer operated in electrospray ionisation (ESI) mode. Compound-specific MRM transitions, cone voltages, and collision energies for all analytes are listed in Supplementary Table S2.
Int. J. Mol. Sci. 2025, 26, x FOR PEER REVIEW 3 of 5
Supplementary Figure S3: Quantification of specific metabolite formation from selected parent/metabolite pairs in a human liver microsomes (HLM) assay. Parent compounds (PAR) were incubated at a concentration of 5 µM (50 µM for chlorfenapyr) with HLM in the absence (dashed line, open symbols) or presence of NADPH (solid lines, closed symbols). Samples were taken every 30 min for 2 h (+NADPH) or at 2 h only (- NADPH). The remaining fraction of the PAR was quantified for each sample. Additionally, one key metabolite (MET) was measured. Its amount is expressed as fraction of PAR converted to MET, assuming an equimolar PAR to MET reaction, 100 % indicates a complete conversion. The middle-dashed line indicates a metabolite formation of at least 10% of PAR. Data are means of two measurements n.d. = not detected.
(1 picture or pasted object on this page, not shown here)

[2] = human liver microsomes, listed under the metabolite

Compound	IC25 (LUHMES cells) [µM]	extent of metabolite formation ([1]; human liver microsomes)	cofactor (NADPH) dependence of metabolite formation [1]	metabolite formation over time [1, 2]	conversion rate of parent to metabolite ([1]; human liver microsomes, up to 2 h, listed under the metabolite)	fold change between BMC25 values of parent and metabolite (potency ratio, parent divided by metabolite) (LUHMES cells) [fold]
C[C@H]1[C@H](OC(=O)CCC(=O)O)O[C@@H]2O[C@@]3(C)CC[C@H]4[C@H](C)CC[C@@H]1[C@@]24OO3 [Artesunate]	3.4	completely converted				
CCCCNC(=O)n1c(NC(=O)OC)nc2ccccc21 [Benomyl]	3.7					
O=C(CCCN1CCC(O)(c2ccc(Cl)cc2)CC1)c1ccc(F)cc1 [Haloperidol]	> 33					
COC(=O)Nc1nc2ccc(Sc3ccccc3)cc2[nH]1 [Fenbendazole]	0.047					
C[n+]1ccc(-c2ccccc2)cc1 [MPP+, 1-methyl-4-phenylpyridinium]	0.12		largely independently of NADPH	time-dependent increase in metabolite formation	approximately 10%	
CN1CC=C(c2ccccc2)CC1 [MPTP, 1-methyl-4-phenyl-tetrahydropyridine]	> 100					
C[C@H]1[C@@H](O)O[C@@H]2O[C@@]3(C)CC[C@H]4[C@H](C)CC[C@@H]1[C@@]24OO3 [Dihydroartemisinin]	1.2		largely independently of NADPH	time-dependent increase in metabolite formation		3
O=C(CCC[n+]1ccc(-c2ccc(Cl)cc2)cc1)c1ccc(F)cc1 [HPP+, haloperidol pyridinium ion]	7.1	only trace amounts		time-dependent increase in metabolite formation		4
CNC(C)Cc1ccc2c(c1)OCO2 (stereo not drawn) [MDMA, methylenedioxymethamphetamine]	> 100					
CC(N)Cc1ccc(O)c(O)c1 (stereo not drawn) [α-Methyldopamine]	16					> 6
